Results taken from patent US7709490B2, “4,5-diphenyl-pyrimidinyl substituted carboxylic acids, method for the production and use thereof as medicaments” (Sanofi-Aventis, priority 2006, dated 2010).

Molecular target: T1, GPCR GPR40 (Homo sapiens, UniProt O14842)
T1 construct: expressed in transfected cells; host or cells: HEK293
Experiment: In vitro FLIPR assay with recombinant cells which express the GPCR GPR40
Type: cell-based
Conditions: 100 μM test substance; intracellular Ca2+ change in recombinant HEK293 cells expressing GPR40; relative to control (0%: no test substance; 100%: 10 μM linoleic acid)
Protocol: In Vitro FLIPR Assay with Recombinant Cells which Express the GPCR GPR40
Function-testing assays were carried out by means of the FLIPR technique (“Fluorescence Imaging Plate Reader”, Molecular Devices Corp.). For this purpose, agonist-induced changes in the intracellular concentration of Ca^2+ in recombinant HEK293 cells which expressed the GPCR GPR40 were determined.
For the investigations, cells were seeded in 96-well microtiter plates (60 000 cells/well) and allowed to grow overnight. The medium was removed and the cells were incubated in buffer which contained the fluorescent dye fluo-4. After this loading with dye, the cells were washed, test substance was added, and changes in the intracellular Ca^2+ concentration were measured in the FLIPR instrument. Results have been presented as percentage change relative to the control (0%: no test substance added; 100%: 10 μM reference agonist linoleic acid added).

T1 sequence (O14842 whole entry): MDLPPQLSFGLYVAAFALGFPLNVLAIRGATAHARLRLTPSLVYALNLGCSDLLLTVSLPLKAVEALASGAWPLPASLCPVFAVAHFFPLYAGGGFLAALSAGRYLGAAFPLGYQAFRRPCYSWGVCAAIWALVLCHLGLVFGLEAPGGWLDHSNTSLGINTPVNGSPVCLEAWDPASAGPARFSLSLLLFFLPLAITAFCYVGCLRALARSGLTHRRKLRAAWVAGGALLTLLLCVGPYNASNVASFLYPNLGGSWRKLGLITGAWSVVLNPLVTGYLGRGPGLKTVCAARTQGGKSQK

| SMILES | % activation @ 100 μM |
| --- | --- |
| O=C(O)CCCC#Cc1ncc(-c2ccccc2)c(-c2ccccc2)n1 [Example 1] | 58% |
| O=C(O)CCCCC#Cc1ncc(-c2ccccc2)c(-c2ccccc2)n1 [Example 2, 7-(4,5-Diphenylpyrimidin-2-yl)-6-heptynoic Acid] | 104% |
